Measurements as given in patent publication US20250099488A1, “ANTI-PARASITE COMPOUNDS” (AUSTRALIAN NATIONAL UNIVERSITY, priority 2022, published 2025).
Like-named read-outs stand apart in the source and are kept apart here.

Key:
asexual P. falciparum = assay: Plasmodium growth inhibition assay (SYBR Safe), asexual stages; assay type: cell-based, Plasmodium falciparum; conditions: for Inhibitory effect on proliferation of asexual stages: FIG. 11D, cholesterol in ethanol, DMSO or ethyl acetate, DHEA
Description: Compounds or solvent controls (DMSO, ethanol, or ethyl acetate) were serially diluted 2-fold across flat-bottom 96-well plates. Complete culture media without compound was used as a negative control. Chloroquine (100-200 nM) {Sigma C6628} was used as a positive control to determine background fluorescence. The parasitaemia of a culture containing predominantly ring stage parasites was counted by Giemsa smear. The parasitaemia was adjusted to 1% by addition of fresh uRBCs, and added to the plate at a final haematocrit of 1%, with 200 μL per well. The plates were incubated at 37° C. under humid microaerophilic conditions. […] Fluorescence was read at 490 nm excitation/520 nm emission on a FLUOstar Optima fluorescence plate reader {BMG Labtech}.
Growth inhibition data were normalised by subtracting background fluorescence from a no-growth control (high drug concentration or time=0 measurement as specified), and expressed as a percentage of the growth in the negative control (media alone or solvent control) either at the indicated timepoint, or to the highest measurement reached during the assay.
P. falciparum asexual parasite assays begun with ring-stage parasites at 1% parasitaemia and 1% haematocrit. 200 nM chloroquine (Sigma C6628) was used as a no-growth control. […] 17]; 8 (2):e54974).
(§1) Growth inhibition data were normalised by subtracting background fluorescence, luminescence, absorbance, or percentage of cells from a no-growth or no-viability control (high drug concentration, no-parasite control, or time=0 measurement as specified), and expressed as a percentage of the growth or cell percentage in the negative control (culture media alone or solvent control) at the indicated timepoint (or to the highest measurement reached during the assay for FIG. 15B).

[1] = tested on: P. falciparum CAM3.IIREV (susceptible); assay: Ring stage survival assay, susceptible revertant strain; assay type: cell-based, Plasmodium falciparum; conditions: 700 nM for six hours, then 66 hours without drug
Description: (§2) The inventors tested these compounds in a ring stage survival assay, which allows the detection of resistant parasites against this […] drug and is the standard method for investigating resistance to artemisinin and its derivatives (Witkowski B, Menard D, Amaratunga C. Fairhurst R. Ring-stage Survival Assays (RSA) to evaluate the in-vitro and ex-vivo susceptibility of Plasmodium falciparum to artemisinins Procedure. Inst Pasteur du Cambodge—Natl Institutes Heal [Internet]. 2013 Sep. 11 [cited 2022 Jun. 19]; Procedure; available from: https://www.wwarn.org/sites/default/files/INV10-Standard-Operating-Procedure-Ring-Stage-Survival-Assays.pdf). This assay involves a short treatment window against newly-invaded ring stage parasites, followed by removal of drug pressure to mimic the clearance of the drug from plasma. We utilised two parasite strains: an isolate from Cambodia (CAM3.II) with a mutated Kelch-13 conferring resistance, and a genetically modified revertant of this strain (CAM3.IIREV) conferring drug susceptibility (Straimer J, Gnädig N F, Witkowski B, Amaratunga C, Duru V, Ramadani A P, et al. K13-propeller mutations confer artemisinin resistance in Plasmodium falciparum clinical isolates. Science (80-) [Internet]. 2015 Jan. 23 [cited 2022 Jun. 19]; 347(6220):428-31; available from: https://www.science.org/doi/10.1126/science.1260867).
(§3) Following tight synchronisation, CAM3.II and CAM3.IIREV ring stage parasites (0-3 hours post invasion) at 1% parasitaemia and 2% haematocrit were incubated with 700 nM of compounds or solvent-only controls for exactly six hours, before removing the drug, thoroughly washing in RPMI, and returning to culture conditions for a further 66 hours. Some cells were treated with 700 nM artesunate for 72 hours as a no-growth control. DNA replication (indicating growth) was measured at the specified time using SYBR Safe DNA Gel Stain. Microscope slide smears of each condition were stained with 10% v/v Giemsa and examined under a light microscope (1 000× magnification); with ‘viable’ (morphologically normal) and ‘non-viable’ (morphologically aberrant; vacuolated or pyknotic) parasites distinguished according to standard protocol (Witkowski B, Menard D, Amaratunga C, Fairhurst R. Ring-stage Survival Assays (RSA) to evaluate the in-vitro and ex-vivo susceptibility of Plasmodium falciparum to artemisinins Procedure. Inst Pasteur du Cambodge—Natl Institutes Heal [Internet]. 2013 Sep. 11 [cited 2022 Jun. 19]; Procedure. Available from: https://www.wwam.org/sites/default/files/INV10-Standard-Operating-Procedure-Ring-Stage-Survival-Assays.pdf). Images were captured using a Leica ICC50 camera, with a resolution of 76 nm per pixel.

[2] = tested on: P. falciparum CAM3.II (mutated Kelch-13, resistant); assay: Ring stage survival assay, resistant strain; assay type: cell-based, Plasmodium falciparum; conditions: 700 nM for six hours, then 66 hours without drug; for Parasite survival (DNA replication): FIG. 17B
Description: as §2, §3

[3] = tested on: human hepatoma cells (Huh7); assay: Huh7 hepatoma viability assay (CellTiter-Blue); assay type: cell-based; conditions: 48 hours; effect on cellular integrity / modest cytotoxicity
Description: Huh7 hepatoma viability assays were conducted in the same manner as the P. berghei assays, with metabolic capacity (indicating viability) measured by incubation with CellTiter-Blue® (Promega) for 3 hours.

[4] = tested on: human foreskin fibroblasts (HFF); assay: HFF growth inhibition assay (SYBR Safe); assay type: cell-based; conditions: 72 hours, FIG. 16G
Description: Cells were incubated with a serial dilution of each compound, or media/DMSO alone. The protein synthesis inhibitor cycloheximide (10 μg/mL) was used as a positive control to determine background fluorescence. Approximately 5000 cells were seeded in each well. […] Plates were transferred to a −18° C. freezer. […] Fluorescence was read at 490 nm excitation/520 nm emission on a FLUOstar Optima fluorescence plate reader.
HFF cell growth inhibition assays began with 5000 cells per well. 10 μg/mL cycloheximide was used as a no-growth control.

[5] = HEK293 cell viability assay (MTT); assay type: cell-based, human; conditions: human, 96 hours, FIG. 16H / FIG. 18C, read-out: IC50, HEK293 cytotoxicity
Description: HEK293 cell viability assays began with 5000 cells per well. 10 μg/mL cycloheximide was used as a no-growth control. Metabolic capacity (indicating viability) was measured by incubation with 0.45 mg/mL methylthiazolyldiphenyl-tetrazolium bromide (MTT; Sigma M2128) for two hours followed by crystal solubilisation in SDS.

[6] = tested on: P. falciparum gametocytes (stage III-IV); assay: Gametocyte viability assay (MitoTracker, flow cytometry); assay type: cell-based, Plasmodium falciparum; conditions: Plasmodium falciparum, read-out: IC50, gametocyte viability
Description: Gametocyte assays begun eight days post-invasion (Stage III-IV).
as §1

[7] = tested on: P. berghei liver stage schizonts; assay: P. berghei liver stage parasite size and number (fluorescence microscopy) in Huh7 cells; assay type: cell-based, Plasmodium berghei; conditions: 3 μM, 48 hours post-infection, vs DMSO
Description: (§4) Huh7 cells were seeded at a density of 10 000 cells per well, or 20 000 per collagen-coated coverslip. […] Uninfected wells served as a control for background luminescence. […] Data are presented as a percentage of the size or parasite number of the solvent control to normalize for differences between experiments. For cell images presented in the figure, images were collected under optimal exposure settings to ensure features were visible. Individual cells were cropped from larger images with Fiji ImageJ, and the brightness was adjusted while ensuring that no fluorescence was removed. No other manipulations were performed.

[8] = tested on: Toxoplasma gondii tachyzoites; assay: Toxoplasma growth inhibition assay (tdTomato fluorescence); assay type: cell-based; conditions: Toxoplasma gondii, 72 h, read-out: IC5 against T. gondii
Description: Fluorescent Toxoplasma gondii parasites were inoculated into an optical bottom 96-well plate containing confluent human foreskin fibroblast (HFF) host cells at a density of 2000 parasites/well, with a serial dilution of each compound, or media/DMSO alone. Plates were measured daily with a FluoStar Optima fluorescence plate reader at 540 nm excitation/590 nm emission for seven days, and the background fluorescence from the time 0 reading was subtracted from all other measurements.
Fluorescence was measured daily with a FluoStar Optima fluorescence plate reader for one week, and the background fluorescence from the time 0 reading was subtracted from all other measurements.
as §1

P. berghei liver stages = assay: P. berghei liver stage growth assay (luciferase) in Huh7 cells; assay type: cell-based, Plasmodium berghei; conditions: Plasmodium berghei, Huh-7; 48 hours of treatment from sporozoite inoculation, Huh7 cells, FIG. 16A
Description: as §4, §1

[9] = Plasmodium falciparum, 24 hours, starting with ring-stage parasites, FIG. 14B, read-out: IC50
[10] = Plasmodium falciparum, 72 hours, FIG. 18B, read-out: IC50

Work on `Cc1ncc([N+](=O)[O-])n1CCOC(=O)CCC(=O)O[C@H]1CC[C@H]2[C@@H]3CC=C4C[C@@H](O)CC[C@]4(C)[C@H]3CC[C@]12C` [BC62D, 3β-Hydroxyandrost-5-en-17β-yl succinate-metronidazole diester] yielded an IC50 (asexual P. falciparum; Plasmodium falciparum, Example 4, FIG. 20B, read-out: IC50) of 24 µM.

With `CC(C)CCC[C@@H](C)[C@H]1CC[C@H]2[C@@H]3CC=C4C[C@@H](OC(=O)CCC(=O)OC(C)C)CC[C@]4(C)[C@H]3CC[C@]12C` [C-3-link, 3β-Succinate-(propan-2-yldiester)-cholest-5-ene] the “No inhibition of parasite growth up to (concentration)” value (asexual P. falciparum; 24 hours) was greater than 200 µM and the IC50 (asexual P. falciparum; [9]) was greater than 200 µM.

For `COc1cc(NC(C)CCCNC(=O)CCC(=O)O[C@H]2CC[C@@]3(C)C(=CC[C@H]4[C@@H]5CC[C@H]([C@H](C)CCCC(C)C)[C@@]5(C)CC[C@@H]43)C2)c2ncccc2c1` (stereo partly drawn) [C-3-prim, Cholester-3-yl succinate-primaquine amide], the “No inhibition of parasite growth up to (concentration)” value (asexual P. falciparum; 24 hours) was greater than 100 µM and the IC50 (asexual P. falciparum; [9]) was greater than 200 µM.

For `C[C@H]1[C@H](OC(=O)CCC(=O)O[C@H]2CC[C@H]3[C@@H]4CC=C5C[C@@H](O)CC[C@]5(C)[C@H]4CC[C@]23C)O[C@@H]2O[C@]3(C)CC[C@H]4[C@H](C)CC[C@@H]1[C@@]24OO3` [C-17-art, 3β-Hydroxyandrost-5-en-17β-yl succinate-artesunate ester], the “Morphology in Giemsa-stained smears” value [1] was “only morphologically aberrant parasites were present”, the “Morphology in Giemsa-stained smears” value [2] was “only aberrant, non-viable parasites were visible” and the “Parasite survival (DNA replication)” value [2] was “kills all cells”.

With `CC(C)OC(=O)CCC(=O)O[C@H]1CC[C@H]2[C@@H]3CC=C4C[C@@H](O)CC[C@]4(C)[C@H]3CC[C@]12C` [C-17-link, 3β-Hydroxyandrost-5-en-17β-yl succinate-propan-2-yl diester] the “Concentration at which cytotoxic effect was detected” value [3] was greater than 30 µM, the “IC50, fibroblast growth” value [4] was “no notable inhibition was observed” and the “Parasite survival / growth inhibition (DNA replication)” value ([1]; FIG. 17B) was “did not significantly impact on the growth of either strain”. The “Parasite survival (DNA replication)” value [2] was “did not significantly impact on the growth of either strain”, the IC50 at 96 h [5] was 43.6 µM and the IC50 ([6]; 48 h) was greater than 100 µM.

In the case of `C[C@]12CC[C@H](O)CC1=CC[C@@H]1[C@@H]2CC[C@]2(C)C(=O)CC[C@@H]12` [DHEA, 3β-Hydroxyandrost-5-en-17-one, reference compound], the “Inhibitory effect on proliferation of asexual stages” value (asexual P. falciparum) is reported as “influences proliferation, although at relatively high concentrations” and the IC50 (asexual P. falciparum; [10]) is reported as 150 µM.

In the case of `Cc1ncc([N+](=O)[O-])n1CCO` [Metronidazole, metronidazole, reference compound], the IC50 (asexual P. falciparum; Example 4, FIG. 20B) is reported as “almost no effect in the range tested”.

In the case of `CC1CCC2C(C)C(OC(=O)CCC(=O)OC3CCC4C5CC=C6CC(O)CCC6(C)C5CCC34C)OC3OC4(C)CCC1C32OO4` (stereo not drawn) [PAYb076a], the “Effect of steroid-artesunate conjugates on proliferation” value (asexual P. falciparum; 72 hrs, FIG. 13B/13C) is reported as “better activity than coupling via C3”.

In the case of `CC(C)OC(=O)CCC(=O)O[C@@H]1O[C@@H]2O[C@]3(C)CC[C@H]4[C@H](C)CC[C@@H]([C@H]1C)[C@@]24OO3` [art-link, Propan-2-yl artesunate ester], the “Morphology in Giemsa-stained smears” value [1] is reported as “only morphologically aberrant parasites were present”, the “Morphology in Giemsa-stained smears” value [2] is reported as “a combination of morphologically normal parasites and morphologically aberrant pyknotic or vacuolated forms” and the “Parasite survival (DNA replication)” value [2] is reported as “showed a trend to improved efficacy over artesunate”.

For `CC(C)CCC[C@@H](C)[C@H]1CC[C@H]2[C@@H]3CC=C4C[C@@H](O)CC[C@]4(C)[C@H]3CC[C@]12C` [cholesterol, Cholesterol, reference compound], the “Inhibitory effect on proliferation of asexual stages” value (asexual P. falciparum) was “No inhibitory effect could be detected in the concentration range being used” and the IC50 (asexual P. falciparum; [10]) was greater than 400 µM.

In the case of `CC(C)(C)OOC(C)(C)C` [di-ter-butyl peroxide, di-tert-butyl peroxide, reference compound], the IC50 (asexual P. falciparum; 72 hours, FIG. 18B, read-out: IC50) is reported as greater than 25 µM.

`COc1cc(NC(C)CCCNC(=O)CCC(=O)OC(C)C)c2ncccc2c1` (stereo not drawn) [prim-link, Propan-2-yl succinate-primaquine amide] showed an IC50 at 96 h ([5]; HEK293 cells) of 13.3 µM and an IC50 ([6]; 48 hours of incubation, stage III-IV, FIG. 14C) greater than 100 µM.

With `COc1cc(NC(C)CCCN)c2ncccc2c1` (stereo not drawn) [primaquine, reference compound] the “Hill slope of inhibitory curve” value (asexual P. falciparum; 24 hours) was −1.65, the “Hill slope of inhibitory curve” value (asexual P. falciparum; 72 hours) was −1.48 and the IC10 (asexual P. falciparum; FIG. 8B, Example 2) was 12 µM. For the same compound, the IC90 (asexual P. falciparum; Plasmodium falciparum, 24 h) was 41 µM, the IC50 (asexual P. falciparum; Plasmodium falciparum, 72 h) was 3.2 µM and the “Smaller parasite size (reduction)” value [7] was 61%. The IC50 [8] was 9.7 µM, the IC50 at 96 h [5] was 10.6 µM and the IC50 ([6]; 48 h) was 63.5 µM. For the same compound, the IC50 (P. berghei liver stages) was 2.9 µM.
